Laboratory results taken from article PMC13245873, “Uridine cytidine kinases govern molnupiravir bioactivation and anti-SARS-CoV-2 activity” (PLOS Pathogens, 2026).

How the values were obtained:
UCK1 [1] = biological target: T1, UCK1 (Homo sapiens, UniProt Q9HA47); test: X-ray co-crystal structure ([…] Å, with NHC); type: binding
T1 construct: amino acids 21–235, N-terminal His tag
T1 sequence (Q9HA47 21-235): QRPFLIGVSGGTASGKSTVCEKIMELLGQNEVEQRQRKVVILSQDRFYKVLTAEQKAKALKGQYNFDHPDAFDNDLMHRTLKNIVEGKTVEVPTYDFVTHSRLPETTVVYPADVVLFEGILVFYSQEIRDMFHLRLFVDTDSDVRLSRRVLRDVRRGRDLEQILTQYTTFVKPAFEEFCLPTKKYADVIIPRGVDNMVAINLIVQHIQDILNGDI

UCK1 [2] = biological target: T2, UCK1 (Homo sapiens, UniProt Q9HA47); test: ADP-Glo-coupled kinase kinetics; DSF dose-response; type: biochemical
T2 construct: recombinant, N-terminal His tag
T2 sequence (Q9HA47 1-277): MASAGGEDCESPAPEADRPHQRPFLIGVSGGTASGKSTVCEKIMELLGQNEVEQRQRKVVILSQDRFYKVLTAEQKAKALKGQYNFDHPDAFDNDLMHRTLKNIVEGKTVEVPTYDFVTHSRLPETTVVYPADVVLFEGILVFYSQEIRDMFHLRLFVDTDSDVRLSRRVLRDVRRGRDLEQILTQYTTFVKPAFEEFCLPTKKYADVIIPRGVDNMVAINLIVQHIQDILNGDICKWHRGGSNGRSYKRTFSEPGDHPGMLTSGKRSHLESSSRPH

UCK2 = biological target: T3, UCK2 (Homo sapiens, UniProt Q9BZX2); test: ADP-Glo-coupled kinase kinetics (kcat/Km); DSF dose-response; type: biochemical
T3 construct: recombinant, C-terminal His tag
T3 sequence (Q9BZX2 2-261): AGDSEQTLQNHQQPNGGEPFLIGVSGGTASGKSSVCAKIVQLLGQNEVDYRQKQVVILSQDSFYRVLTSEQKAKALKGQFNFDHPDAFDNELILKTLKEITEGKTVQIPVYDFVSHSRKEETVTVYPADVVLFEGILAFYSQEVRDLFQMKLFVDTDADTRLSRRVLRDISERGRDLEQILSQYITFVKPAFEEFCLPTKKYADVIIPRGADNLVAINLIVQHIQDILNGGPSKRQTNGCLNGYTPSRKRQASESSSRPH

purified protein = substrate: O=c1nc(NO)ccn1[C@@H]1O[C@H](CO)[C@@H](O)[C@H]1O; test: purified protein; type: binding, Homo sapiens; conditions: AMPPNP (ATP site) and Mg2+ active site; π-stacking with F86 and F117; H-bonds with D65, D87, Y115, H120, R160 and the ATP gamma-phosphate
[3] = biological target: the molecule itself; test: SEC; gel filtration of purified recombinant UCK1 (amino acids 21–235) on a Superdex200 increase 10/300 GL column; single peak
[4] = substrate: O=c1nc(NO)ccn1[C@@H]1O[C@H](CO)[C@@H](O)[C@H]1O; test: ADP-Glo-coupled kinase kinetics (Km); DSF dose-response; type: biochemical, Homo sapiens; conditions: ATP, Mg2+
Excerpt: ADP-Glo-coupled kinase kinetics (Km); DSF dose-response on UCK2 | NHC was a substrate for both UCK1 and UCK2

`Nc1ncnc2c1ncn2[C@@H]1O[C@H](CO[P@](=O)(O)O[P@](=O)(O)NP(=O)(O)O)[C@@H](O)[C@H]1O` [AMPPNP, adenosine 5’-(β,γ-imido)triphosphate] was tested, and the “X-ray co-crystal structure (2.40 Å, with NHC)” value (UCK1 [1]) was “AMPPNP binds in a pocket closer to the surface, and is positioned by H-bonds between the phosphate group and residues”.

With `Nc1ccn([C@@H]2O[C@H](CO)[C@@H](O)[C@H]2O)c(=O)n1` [C, cytidine] the “ADP-Glo-coupled kinase kinetics; DSF dose-response” value (UCK1 [2]) was “Using cytidine as the substrate, the ADP-Glo-coupled kinase activity assay produced kinetic parameters” and the “ADP-Glo-coupled kinase kinetics (kcat/Km); DSF dose-response” value (UCK2) was 56666.7 M⁻¹ s⁻¹.

B1: human UCK1 construct (amino acids 21–235) (enzyme, UniProt Q9HA47 21-235, looked up)
chain: T1 sequence (Q9HA47 21-235)
notes: uridine cytidine kinase 1 (UCK1), human, residues 21-235; cDNA optimized for expression in E. coli, in pET24a(+); Tetramer by gel filtration and in the crystal's asymmetric unit; also called hUCK1; uridine cytidine kinase 1; source: E. coli BL21 (DE3), purified (IMAC, SEC)
With B1 the Km (purified protein) was 1140 ± 320 µM and the “stoichiometry N” value [3] was 4.

B2: UCK2 (Homo sapiens) (protein)
chain: T3 sequence (Q9BZX2 2-261)
notes: recombinant, C-terminal His tag
B2 was tested, and the Km [4] was 260 ± 70 µM.
